Results: patent publication US11969428B2, “Methods and pharmaceutical compositions for treating lymphoid malignancy” (priority 2011, dated 2024)

Assays:
Test in all cases: Ambit KinomeScan screening
Format in all cases: binding
Settings in all cases: CAL-130 10 μM
[1] = target: T1, CAMK2A (Homo sapiens, UniProt Q9UQM7)
T1 construct: unspecified tag ("tagged kinases"); purchased Ambit (KinomeScan screening)
Summary of the method: (§1)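 In this 353-kinase competition screen, the compound (CAL-130, 10 μM) competed with an immobilized ligand for each tagged kinase. Percentages of control binding above 35% were treated as no hits.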

[2] = target: T2, PKMYT1 (Homo sapiens, UniProt Q99640)
T2 construct: purchased Ambit (KinomeScan screening service)
Summary of the method: as §1

[3] = target: T3, FES (Homo sapiens, UniProt P07332)
T3 construct: unspecified tag ("tagged kinases"); purchased Ambit (KinomeScan screening service)
T3 sequence (P07332 whole entry): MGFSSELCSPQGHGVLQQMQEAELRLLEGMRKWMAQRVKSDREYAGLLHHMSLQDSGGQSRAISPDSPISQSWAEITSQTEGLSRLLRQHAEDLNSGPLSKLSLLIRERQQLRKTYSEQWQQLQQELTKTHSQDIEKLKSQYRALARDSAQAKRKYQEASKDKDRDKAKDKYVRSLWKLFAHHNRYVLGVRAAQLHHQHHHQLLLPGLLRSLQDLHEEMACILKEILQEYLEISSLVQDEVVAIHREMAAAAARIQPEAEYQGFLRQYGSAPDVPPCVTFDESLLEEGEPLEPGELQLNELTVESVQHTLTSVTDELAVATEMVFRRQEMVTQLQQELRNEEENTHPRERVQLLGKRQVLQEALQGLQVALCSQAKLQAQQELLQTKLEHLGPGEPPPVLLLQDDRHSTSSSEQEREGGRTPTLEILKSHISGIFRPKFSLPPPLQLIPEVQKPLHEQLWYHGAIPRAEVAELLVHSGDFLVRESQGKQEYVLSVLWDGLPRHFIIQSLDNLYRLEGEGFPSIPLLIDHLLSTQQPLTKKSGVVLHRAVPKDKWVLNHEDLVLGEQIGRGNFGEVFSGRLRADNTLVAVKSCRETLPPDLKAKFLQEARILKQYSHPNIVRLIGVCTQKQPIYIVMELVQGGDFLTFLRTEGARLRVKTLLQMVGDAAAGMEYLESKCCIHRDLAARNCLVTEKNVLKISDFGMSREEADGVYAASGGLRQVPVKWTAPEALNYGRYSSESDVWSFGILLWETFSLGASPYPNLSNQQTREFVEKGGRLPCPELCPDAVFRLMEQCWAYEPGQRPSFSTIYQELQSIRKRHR
Summary of the method: as §1

[4] = target: T4, MINK (Homo sapiens, UniProt Q8N4C8)
T4 construct: unspecified tag ('tagged kinases'); purchased Ambit (KinomeScan screening)
Summary of the method: as §1

[5] = target: T5, RET(M918T) (Homo sapiens, UniProt P07949, M918T)
T5 construct: tag (kind not specified); purchased Ambit (KinomeScan screening service)
Summary of the method: as §1

[6] = target: T6, EGFR(L861Q) (Homo sapiens, UniProt P00533, L861Q)
T6 construct: unspecified tag; purchased Ambit (KinomeScan screening service)
Summary of the method: as §1

[7] = target: T7, CSNK2A2 (Homo sapiens, UniProt P19784)
T7 construct: purchased Ambit (KinomeScan screening service)
Summary of the method: as §1

[8] = target: T8, PKN2 (Homo sapiens, UniProt Q16513)
T8 construct: purchased Ambit (KinomeScan screening service)
Summary of the method: as §1

[9] = target: T9, HPK1 (Homo sapiens, UniProt Q92918)
T9 construct: Ambit (KinomeScan screening)
Summary of the method: as §1

[10] = target: T10, PIP5K2B (Homo sapiens, UniProt P78356)
T10 construct: unspecified tag; purchased Ambit (KinomeScan screening panel)
Summary of the method: as §1

[11] = target: T11, MELK (Homo sapiens, UniProt Q14680)
T11 construct: purchased Ambit (KinomeScan screening)
T11 sequence (Q14680 whole entry): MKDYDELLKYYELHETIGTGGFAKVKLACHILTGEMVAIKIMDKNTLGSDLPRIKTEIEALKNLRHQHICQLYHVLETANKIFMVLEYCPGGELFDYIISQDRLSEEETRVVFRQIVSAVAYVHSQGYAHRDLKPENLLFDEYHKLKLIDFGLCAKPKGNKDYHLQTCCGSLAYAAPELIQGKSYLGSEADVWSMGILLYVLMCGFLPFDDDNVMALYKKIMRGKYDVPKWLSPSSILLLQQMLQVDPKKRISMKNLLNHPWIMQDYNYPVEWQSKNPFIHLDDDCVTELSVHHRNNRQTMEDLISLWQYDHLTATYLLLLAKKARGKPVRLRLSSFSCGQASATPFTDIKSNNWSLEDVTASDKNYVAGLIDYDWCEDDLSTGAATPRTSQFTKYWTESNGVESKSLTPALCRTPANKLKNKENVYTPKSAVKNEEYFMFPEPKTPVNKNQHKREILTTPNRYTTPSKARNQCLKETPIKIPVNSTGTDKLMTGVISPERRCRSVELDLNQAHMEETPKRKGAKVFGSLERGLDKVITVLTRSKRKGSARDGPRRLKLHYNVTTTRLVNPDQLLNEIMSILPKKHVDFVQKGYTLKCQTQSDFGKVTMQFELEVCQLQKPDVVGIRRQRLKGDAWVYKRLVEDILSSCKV
Summary of the method: as §1

[12] = target: T12, KIT(D816V) (Homo sapiens, UniProt P10721, D816V)
T12 construct: purchased Ambit (KinomeScan screening)
Summary of the method: as §1

[13] = target: T13, BLK (Homo sapiens, UniProt P51451)
T13 construct: purchased Ambit (KinomeScan screening service)
Summary of the method: as §1

[14] = target: T14, MAP3K2 (Homo sapiens, UniProt Q9Y2U5)
T14 construct: Ambit (KinomeScan screening)
Summary of the method: as §1

[15] = target: T15, EPHB1 (Homo sapiens, UniProt P54762)
T15 construct: purchased Ambit (KinomeScan screening service)
Summary of the method: as §1

[16] = target: T16, DLK (Homo sapiens, UniProt Q12852)
T16 construct: unspecified tag ("tagged kinases"); purchased Ambit (KinomeScan screening service)
Summary of the method: as §1

[17] = target: T17, TESK1 (Homo sapiens, UniProt Q15569)
T17 construct: unspecified tag (tagged kinase); purchased Ambit (KinomeScan screening)
Summary of the method: as §1

[18] = target: T18, MAP3K4 (Homo sapiens, UniProt Q9Y6R4)
T18 construct: Ambit (KinomeScan screening)
T18 sequence (Q9Y6R4 whole entry): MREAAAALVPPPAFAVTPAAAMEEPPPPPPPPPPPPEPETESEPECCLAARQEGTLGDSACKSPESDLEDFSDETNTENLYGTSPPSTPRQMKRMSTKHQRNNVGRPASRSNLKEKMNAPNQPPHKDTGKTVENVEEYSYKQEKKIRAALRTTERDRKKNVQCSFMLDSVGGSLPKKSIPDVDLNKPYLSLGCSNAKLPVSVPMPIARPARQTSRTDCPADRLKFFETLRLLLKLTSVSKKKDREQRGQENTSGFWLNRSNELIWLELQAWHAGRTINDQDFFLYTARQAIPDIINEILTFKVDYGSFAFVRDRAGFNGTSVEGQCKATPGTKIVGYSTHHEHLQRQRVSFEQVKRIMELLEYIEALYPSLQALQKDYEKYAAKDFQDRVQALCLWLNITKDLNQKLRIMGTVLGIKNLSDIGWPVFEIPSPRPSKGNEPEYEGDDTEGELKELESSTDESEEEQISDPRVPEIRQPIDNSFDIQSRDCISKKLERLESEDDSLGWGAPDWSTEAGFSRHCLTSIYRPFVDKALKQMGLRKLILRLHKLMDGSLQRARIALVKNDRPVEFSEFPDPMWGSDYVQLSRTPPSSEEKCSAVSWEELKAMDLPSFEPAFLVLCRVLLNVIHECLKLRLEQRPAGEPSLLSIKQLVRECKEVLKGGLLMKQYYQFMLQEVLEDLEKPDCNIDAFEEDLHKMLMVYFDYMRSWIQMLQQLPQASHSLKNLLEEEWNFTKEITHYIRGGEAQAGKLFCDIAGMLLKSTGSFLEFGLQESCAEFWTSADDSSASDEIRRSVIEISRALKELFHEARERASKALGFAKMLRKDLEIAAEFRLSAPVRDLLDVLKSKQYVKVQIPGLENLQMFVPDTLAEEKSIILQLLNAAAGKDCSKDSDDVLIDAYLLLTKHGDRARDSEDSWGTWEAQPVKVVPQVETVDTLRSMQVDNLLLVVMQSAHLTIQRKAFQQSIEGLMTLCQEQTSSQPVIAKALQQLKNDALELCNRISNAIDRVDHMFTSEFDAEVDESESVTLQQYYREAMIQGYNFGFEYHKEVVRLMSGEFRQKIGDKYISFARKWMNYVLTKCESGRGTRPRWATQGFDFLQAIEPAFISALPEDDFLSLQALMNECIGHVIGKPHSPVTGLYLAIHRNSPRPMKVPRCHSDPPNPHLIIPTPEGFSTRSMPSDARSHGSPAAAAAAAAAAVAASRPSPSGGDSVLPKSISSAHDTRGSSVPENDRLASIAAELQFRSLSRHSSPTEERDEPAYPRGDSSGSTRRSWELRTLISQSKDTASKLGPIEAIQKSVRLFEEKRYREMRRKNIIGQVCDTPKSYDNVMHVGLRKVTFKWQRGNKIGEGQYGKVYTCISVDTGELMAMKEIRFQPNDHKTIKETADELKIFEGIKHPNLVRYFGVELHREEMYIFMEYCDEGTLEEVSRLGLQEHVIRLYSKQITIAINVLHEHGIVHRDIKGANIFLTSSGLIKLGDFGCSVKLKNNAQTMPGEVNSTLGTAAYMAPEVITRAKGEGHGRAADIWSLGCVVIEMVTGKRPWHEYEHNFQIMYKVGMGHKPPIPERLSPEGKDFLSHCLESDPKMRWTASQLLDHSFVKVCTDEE
Summary of the method: as §1

[19] = target: T19, ANKK1 (Homo sapiens, UniProt Q8NFD2)
T19 construct: purchased Ambit (KinomeScan screening)
T19 sequence (Q8NFD2 whole entry): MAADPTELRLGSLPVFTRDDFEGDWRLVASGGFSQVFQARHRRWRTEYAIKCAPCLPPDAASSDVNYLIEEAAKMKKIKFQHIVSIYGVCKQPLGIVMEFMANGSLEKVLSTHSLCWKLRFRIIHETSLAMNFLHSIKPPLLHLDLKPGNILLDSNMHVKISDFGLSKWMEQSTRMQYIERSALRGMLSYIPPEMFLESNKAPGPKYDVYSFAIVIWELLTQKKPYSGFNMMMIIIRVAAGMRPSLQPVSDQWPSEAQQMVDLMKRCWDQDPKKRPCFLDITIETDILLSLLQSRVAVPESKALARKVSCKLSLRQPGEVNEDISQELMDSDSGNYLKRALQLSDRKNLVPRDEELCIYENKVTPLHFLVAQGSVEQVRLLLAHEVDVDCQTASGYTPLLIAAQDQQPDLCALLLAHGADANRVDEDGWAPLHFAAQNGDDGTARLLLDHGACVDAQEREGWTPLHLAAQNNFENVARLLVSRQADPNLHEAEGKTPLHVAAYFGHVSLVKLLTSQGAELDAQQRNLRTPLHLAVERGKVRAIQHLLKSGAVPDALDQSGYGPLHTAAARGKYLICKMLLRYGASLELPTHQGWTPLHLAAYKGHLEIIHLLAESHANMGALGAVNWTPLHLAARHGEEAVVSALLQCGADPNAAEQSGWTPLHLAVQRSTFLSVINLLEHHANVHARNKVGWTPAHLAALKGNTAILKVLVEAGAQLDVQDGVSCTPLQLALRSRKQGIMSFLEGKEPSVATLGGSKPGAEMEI
Summary of the method: as §1

[20] = target: T20, TIE2 (Homo sapiens, UniProt Q02763)
T20 construct: unspecified tag (tagged kinase); purchased Ambit (KinomeScan screening)
Summary of the method: as §1

[21] = target: T21, RPS6KA2 (Homo sapiens, UniProt Q15349)
T21 construct: unspecified tag (tagged kinase); purchased Ambit (KinomeScan screening)
Summary of the method: as §1

[22] = target: T22, MAPKAPK2 (Homo sapiens, UniProt P49137)
T22 construct: Ambit (KinomeScan screening)
Summary of the method: as §1

[23] = target: T23, ROCK2 (Homo sapiens, UniProt O75116)
T23 construct: unspecified tag (tagged kinase); purchased Ambit (KinomeScan screening)
Summary of the method: as §1

[24] = target: T24, NEK7 (Homo sapiens, UniProt Q8TDX7)
T24 construct: purchased Ambit (KinomeScan screening service)
Summary of the method: as §1

[25] = target: T25, FGFR3 (Homo sapiens, UniProt P22607)
T25 construct: unspecified tag; purchased Ambit (KinomeScan screening service)
Summary of the method: as §1

[26] = target: T26, PIK3CD (Homo sapiens, UniProt O00329)
T26 construct: unspecified tag; purchased Ambit (KinomeScan screening panel)
T26 sequence (O00329 whole entry): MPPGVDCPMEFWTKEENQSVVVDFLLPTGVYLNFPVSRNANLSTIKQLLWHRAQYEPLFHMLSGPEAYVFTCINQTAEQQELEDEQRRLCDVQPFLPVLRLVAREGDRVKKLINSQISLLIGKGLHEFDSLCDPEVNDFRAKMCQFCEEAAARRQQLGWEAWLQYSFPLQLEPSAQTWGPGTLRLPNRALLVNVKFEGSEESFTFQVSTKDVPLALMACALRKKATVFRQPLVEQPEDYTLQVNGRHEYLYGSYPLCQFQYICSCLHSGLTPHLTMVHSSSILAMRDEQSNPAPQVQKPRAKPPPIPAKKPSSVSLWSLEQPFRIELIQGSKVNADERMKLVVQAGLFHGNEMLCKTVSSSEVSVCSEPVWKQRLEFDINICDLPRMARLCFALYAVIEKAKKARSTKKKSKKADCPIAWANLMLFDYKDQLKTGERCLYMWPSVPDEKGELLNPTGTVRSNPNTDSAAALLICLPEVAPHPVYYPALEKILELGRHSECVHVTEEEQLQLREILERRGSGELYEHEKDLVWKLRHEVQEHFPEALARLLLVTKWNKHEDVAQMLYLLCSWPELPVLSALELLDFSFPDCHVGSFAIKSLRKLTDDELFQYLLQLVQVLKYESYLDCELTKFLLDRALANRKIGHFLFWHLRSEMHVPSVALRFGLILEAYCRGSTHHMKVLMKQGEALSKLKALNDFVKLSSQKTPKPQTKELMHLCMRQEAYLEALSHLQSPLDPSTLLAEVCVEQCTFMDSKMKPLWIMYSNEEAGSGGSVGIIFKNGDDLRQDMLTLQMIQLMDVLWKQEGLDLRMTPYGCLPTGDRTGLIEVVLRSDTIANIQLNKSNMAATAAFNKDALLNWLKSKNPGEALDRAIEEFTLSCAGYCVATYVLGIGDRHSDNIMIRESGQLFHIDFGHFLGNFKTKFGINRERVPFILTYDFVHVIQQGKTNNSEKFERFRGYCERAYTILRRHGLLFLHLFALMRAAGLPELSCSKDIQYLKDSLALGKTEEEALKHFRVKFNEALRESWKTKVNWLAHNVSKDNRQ
Summary of the method: as §1

[27] = target: T27, FLT3(D835Y) (Homo sapiens, UniProt P36888, D835Y)
T27 construct: unspecified tag; purchased Ambit (KinomeScan screening service)
Summary of the method: as §1

[28] = target: T28, ACVR2B (Homo sapiens, UniProt Q13705)
T28 construct: purchased Ambit (KinomeScan screening)
Summary of the method: as §1

[29] = target: T29, CAMK4 (Homo sapiens, UniProt Q16566)
T29 construct: purchased Ambit (KinomeScan screening)
Summary of the method: as §1

[30] = target: T30, TAK1 (Homo sapiens, UniProt O43318)
T30 construct: tag (kind not specified); purchased Ambit (KinomeScan screening service)
Summary of the method: as §1

[31] = target: T31, FGFR3(G697C) (Homo sapiens, UniProt P22607, G697C)
T31 construct: unspecified tag; purchased Ambit (KinomeScan screening service)
Summary of the method: as §1

[32] = target: T32, FLT3(N841I) (Homo sapiens, UniProt P36888, N841I)
T32 construct: unspecified tag; purchased Ambit (KinomeScan screening service)
Summary of the method: as §1

[33] = target: T33, MKNK1 (Homo sapiens, UniProt Q9BUB5)
T33 construct: unspecified tag ('tagged kinases'); purchased Ambit (KinomeScan screening)
Summary of the method: as §1

[34] = target: T34, MAPKAPK5 (Homo sapiens, UniProt Q8IW41)
T34 construct: Ambit (KinomeScan screening)
Summary of the method: as §1

[35] = target: T35, CTK (Homo sapiens, UniProt P42679)
T35 construct: purchased Ambit (KinomeScan screening service)
Summary of the method: as §1

[36] = target: T36, TNNI3K (Homo sapiens, UniProt Q59H18)
T36 construct: unspecified tag (tagged kinase); purchased Ambit (KinomeScan screening)
Summary of the method: as §1

`Cc1ccccc1-n1c(C(C)Nc2nc(N)nc3nc[nH]c23)nc2cccc(C)c2c1=O` (stereo not shown) [CAL-130] was tested, and the “Percent of Control Binding” value [1] was 100%, the “Percent of Control Binding” value [2] was 100% and the “Percent of Control Binding” value [3] was 100%. For the same compound, the “Percent of Control Binding” value [4] was 100%, the “Percent of Control Binding” value [5] was 100% and the “Percent of Control Binding” value [6] was 100%. The “Percent of Control Binding” value [7] was 100%, the “Percent of Control Binding” value [8] was 100% and the “Percent of Control Binding” value [9] was 100%. For the same compound, the “Percent of Control Binding” value [10] was 100%, the “Percent of Control Binding” value [11] was 100% and the “Percent of Control Binding” value [12] was 100%. For the same compound, the “Percent of Control Binding” value [13] was 100%, the “Percent of Control Binding” value [14] was 100% and the “Percent of Control Binding” value [15] was 100%. For the same compound, the “Percent of Control Binding” value [16] was 100%, the “Percent of Control Binding” value [17] was 100% and the “Percent of Control Binding” value [18] was 100%. For the same compound, the “Percent of Control Binding” value [19] was 100%, the “Percent of Control Binding” value [20] was 100% and the “Percent of Control Binding” value [21] was 100%. The “Percent of Control Binding” value [22] was 100%, the “Percent of Control Binding” value [23] was 100% and the “Percent of Control Binding” value [24] was 100%. For the same compound, the “Percent of Control Binding” value [25] was 100%, the “Percent of Control Binding” value ([26]; PI3KCD (Table 2)) was 0.1% and the “Percent of Control Binding” value ([26]; PIK3CD / PI3Kδ (Table 1)) was 0.2%. For the same compound, the “Percent of Control Binding” value [27] was 100%, the “Percent of Control Binding” value [28] was 100% and the “Percent of Control Binding” value [29] was 100%. The “Percent of Control Binding” value [30] was 100%, the “Percent of Control Binding” value [31] was 100% and the “Percent of Control Binding” value [32] was 100%. The “Percent of Control Binding” value [33] was 100%, the “Percent of Control Binding” value [34] was 100% and the “Percent of Control Binding” value [35] was 100%. The “Percent of Control Binding” value [36] was 100%.
